Assay results as given in patent publication US20220185822A1, “SELECTIVE LIGANDS OF HUMAN CONSTITUTIVE ANDROSTANE RECEPTOR” (USTAV ORGANICKE CHEMIE A BIOCHEMIE AV CR, V.V.I., priority 2019, published 2022).
“Also recorded” adds a separate entry of the source.

Experiments:
[1] = tested on: CAR target genes mRNAs (Cyp2b10, Cyp2c29, CYP3A4); test: Single dose study in humanized PXR-CAR-CYP3A4/3A7 mice, liver RT-qPCR; format: in vivo; conditions: single p.o. 10 mg/kg, 24 hours (FIG. 5)
Method: Four males were used in each group. Livers were sampled 24 hours after application into liquid nitrogen for qRT-PCR analysis.

[2] = Metabolic stability in human liver S9 fraction; format: in vitro ADME; conditions: read-out: T1/2 in human liver S9 fraction
Method: Glucose-6-phosphate dehydrogenase from baker's yeast, type XV was purchased from Sigma-Aldrich, now Merck (Cat. No. G6378). Control incubations were performed replacing the cofactors system with PBS. […] Five time points over 40 minutes had been analyzed. Supernatants were analyzed using the HPLC system coupled with HPLC-MS/MS analysis as described above.

[3] = Human plasma protein binding (micro-equilibrium dialysis); format: in vitro ADME; conditions: at 1 μM/L
human CYP2D6 = target: T1, human CYP2D6 (Homo sapiens, UniProt P10635); test: Commercial CYP450-Glo inhibition assay, CYP2D6; format: in vitro ADME
T1 construct: purchased Promega V8891
T1 sequence (P10635 whole entry): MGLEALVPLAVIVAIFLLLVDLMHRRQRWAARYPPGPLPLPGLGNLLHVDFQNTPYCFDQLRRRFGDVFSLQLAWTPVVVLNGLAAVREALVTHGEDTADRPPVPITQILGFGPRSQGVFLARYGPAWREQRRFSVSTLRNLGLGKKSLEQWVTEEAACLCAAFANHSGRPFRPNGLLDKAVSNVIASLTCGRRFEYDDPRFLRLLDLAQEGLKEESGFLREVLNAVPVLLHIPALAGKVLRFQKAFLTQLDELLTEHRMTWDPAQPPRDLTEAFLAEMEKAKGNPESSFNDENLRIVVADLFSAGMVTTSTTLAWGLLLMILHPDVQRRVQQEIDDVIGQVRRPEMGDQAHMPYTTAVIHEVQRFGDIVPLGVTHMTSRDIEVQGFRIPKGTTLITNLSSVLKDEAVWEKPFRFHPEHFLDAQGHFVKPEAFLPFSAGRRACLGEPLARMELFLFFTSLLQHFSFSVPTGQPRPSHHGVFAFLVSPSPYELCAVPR
Method: (§1) Genetically modified microsomes with human CYP3A4, CYP2C9, CYP2D6 and CYP1A2 enzymes (CYP450-Glo™ CYP3A4 Assay with Luciferin-IPA (Cat. No. V8802), CYP450-Glo™ CYP1A2 with Luciferin-1A2 (Cat. No. V8772), CYP450-Glo™ CYP2C9 Assay with Luciferin-H (Cat. No. V8792, Promega, Madison, Calif.) and P450-Glo™ CYP2D6 Assay Cat. No. V8891, Promega) were used according to manufacturer's procedures. […] Each point was tested in triplicates and experiments have been repeated three times.

human androgen receptor = target: T2, human androgen receptor (Homo sapiens, UniProt P10275); test: Luciferase reporter assay with GAL4 construct with LBD, androgen receptor; format: cell-based; conditions: 10 μM/L
T2 construct: luciferase reporter assays with a GAL4 constructs with LBD of tested nuclear receptors; expressed in transfected cells
T2 sequence (P10275 669-900 limits assumed): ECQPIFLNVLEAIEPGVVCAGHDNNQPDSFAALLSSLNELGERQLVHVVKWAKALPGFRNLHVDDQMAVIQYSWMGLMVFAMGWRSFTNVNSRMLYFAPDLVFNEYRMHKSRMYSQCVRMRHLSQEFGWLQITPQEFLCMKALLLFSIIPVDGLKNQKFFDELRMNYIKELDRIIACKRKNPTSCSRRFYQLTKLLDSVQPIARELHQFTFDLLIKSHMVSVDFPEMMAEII

glucocorticoid receptor = target: T3, glucocorticoid receptor (Homo sapiens, UniProt P04150); test: Luciferase reporter assay with GAL4 construct with LBD, glucocorticoid receptor; format: cell-based; conditions: 10 μM/L
T3 construct: luciferase reporter assays with a GAL4 constructs with LBD of tested nuclear receptors; expressed in transfected cells
T3 sequence (P04150 524-758 limits assumed): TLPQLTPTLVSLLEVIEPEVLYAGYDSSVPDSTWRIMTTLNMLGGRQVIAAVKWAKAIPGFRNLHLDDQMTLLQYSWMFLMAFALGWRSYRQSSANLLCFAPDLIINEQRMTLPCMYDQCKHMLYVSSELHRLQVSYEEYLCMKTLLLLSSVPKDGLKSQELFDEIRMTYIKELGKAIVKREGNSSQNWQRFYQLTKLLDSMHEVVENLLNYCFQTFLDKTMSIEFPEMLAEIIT

PPARγ = target: T4, PPARγ (Homo sapiens, UniProt P37231); test: Luciferase reporter assay with GAL4 construct with LBD, PPARγ; format: cell-based; conditions: 10 μM/L
T4 construct: luciferase reporter assays with a GAL4 constructs with LBD of tested nuclear receptors; expressed in transfected cells
T4 sequence (P37231 238-503 limits assumed): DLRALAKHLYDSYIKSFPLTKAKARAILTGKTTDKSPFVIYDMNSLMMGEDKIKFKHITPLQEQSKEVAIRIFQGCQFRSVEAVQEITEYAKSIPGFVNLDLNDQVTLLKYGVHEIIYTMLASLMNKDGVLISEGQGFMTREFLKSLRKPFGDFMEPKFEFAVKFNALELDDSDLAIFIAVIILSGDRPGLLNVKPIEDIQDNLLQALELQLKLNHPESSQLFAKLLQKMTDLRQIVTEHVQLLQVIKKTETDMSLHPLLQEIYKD

[4] = target: T5, human potassium channel hERG (Homo sapiens, UniProt Q12809); test: FluxOR II Green Potassium Ion Channel Assay with HEK293-hERG cells; format: cell-based; conditions: at 20 μM/L
T5 construct: expressed in transfected cells; host or cells: HEK293-hERG
T5 sequence (Q12809 whole entry): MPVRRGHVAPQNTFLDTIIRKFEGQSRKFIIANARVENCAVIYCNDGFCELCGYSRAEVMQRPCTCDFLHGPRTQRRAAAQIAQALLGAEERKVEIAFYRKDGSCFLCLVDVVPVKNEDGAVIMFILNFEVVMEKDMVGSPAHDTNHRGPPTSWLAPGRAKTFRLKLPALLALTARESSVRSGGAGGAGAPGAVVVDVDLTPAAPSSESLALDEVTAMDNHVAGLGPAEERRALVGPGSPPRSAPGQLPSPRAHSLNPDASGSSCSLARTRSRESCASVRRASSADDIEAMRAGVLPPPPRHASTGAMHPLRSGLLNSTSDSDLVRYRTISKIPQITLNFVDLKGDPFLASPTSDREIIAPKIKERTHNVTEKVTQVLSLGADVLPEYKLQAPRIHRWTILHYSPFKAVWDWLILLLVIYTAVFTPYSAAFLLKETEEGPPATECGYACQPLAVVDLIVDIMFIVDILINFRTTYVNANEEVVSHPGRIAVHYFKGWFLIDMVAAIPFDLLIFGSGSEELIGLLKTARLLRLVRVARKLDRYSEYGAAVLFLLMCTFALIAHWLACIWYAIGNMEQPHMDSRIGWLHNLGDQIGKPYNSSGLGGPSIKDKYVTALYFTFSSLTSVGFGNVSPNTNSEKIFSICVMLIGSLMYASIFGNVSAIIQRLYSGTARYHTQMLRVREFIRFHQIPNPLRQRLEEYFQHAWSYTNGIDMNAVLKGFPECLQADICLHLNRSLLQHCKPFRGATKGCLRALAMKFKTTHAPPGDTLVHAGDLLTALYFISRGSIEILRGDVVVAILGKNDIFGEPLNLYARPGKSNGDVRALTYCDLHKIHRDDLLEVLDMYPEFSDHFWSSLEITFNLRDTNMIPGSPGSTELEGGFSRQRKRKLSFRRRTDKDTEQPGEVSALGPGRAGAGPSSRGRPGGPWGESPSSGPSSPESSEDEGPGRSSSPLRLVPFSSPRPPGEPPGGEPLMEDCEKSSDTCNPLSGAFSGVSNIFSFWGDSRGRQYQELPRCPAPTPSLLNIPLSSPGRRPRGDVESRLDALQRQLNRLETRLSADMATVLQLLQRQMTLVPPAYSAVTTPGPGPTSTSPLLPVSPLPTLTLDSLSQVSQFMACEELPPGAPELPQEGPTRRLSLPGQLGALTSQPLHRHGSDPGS
Method: For compound of EXAMPLE 93, The FluxOR™ II Green Potassium Ion Channel Assay with HEK293-hERG cells (stably expressing human potassium channel hERG) seeded on Poly-D-Lysine-coated 384-well microplates (Corning, Cat. #356663) was used according to the manufacturer's instructions. hERG stimulation buffer containing thallium and potassium was added and the intracellular fluorescence was measured.

[5] = tested on: CAR+A-EGFP fusion protein; test: CAR+A-EGFP translocation into nucleus in COS-1 cells; format: cell-based; conditions: 10 μM/L, 48 h
live X receptor β = target: T6, live X receptor β (Homo sapiens, UniProt P55055); test: Luciferase reporter assay with GAL4 construct with LBD, live X receptor β; format: cell-based; conditions: 10 μM/L
T6 construct: luciferase reporter assays with a GAL4 constructs with LBD of tested nuclear receptors; expressed in transfected cells
T6 sequence (P55055 222-460 limits assumed): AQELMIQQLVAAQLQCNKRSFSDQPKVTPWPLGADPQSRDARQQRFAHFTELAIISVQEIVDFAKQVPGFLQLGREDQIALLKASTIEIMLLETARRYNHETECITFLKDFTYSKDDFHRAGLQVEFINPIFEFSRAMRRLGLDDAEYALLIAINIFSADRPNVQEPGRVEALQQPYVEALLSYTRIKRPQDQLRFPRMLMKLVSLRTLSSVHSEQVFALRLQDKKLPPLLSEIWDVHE

estradion α receptor = target: T7, estradion α receptor (Homo sapiens, UniProt P03372); test: Luciferase reporter assay with GAL4 construct with LBD, estradion α receptor; format: cell-based; conditions: 10 μM/L
T7 construct: luciferase reporter assays with a GAL4 constructs with LBD of tested nuclear receptors; expressed in transfected cells
T7 sequence (P03372 311-547 limits assumed): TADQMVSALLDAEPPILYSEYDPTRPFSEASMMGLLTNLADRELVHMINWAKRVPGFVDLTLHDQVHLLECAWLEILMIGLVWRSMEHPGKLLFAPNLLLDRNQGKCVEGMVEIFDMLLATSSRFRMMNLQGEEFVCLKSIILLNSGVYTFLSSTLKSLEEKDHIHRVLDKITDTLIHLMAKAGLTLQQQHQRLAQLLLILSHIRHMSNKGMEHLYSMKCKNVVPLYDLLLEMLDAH

human PXR = target: T8, human PXR (Homo sapiens, UniProt O75469); test: PXR-responsive luciferase reporter gene assay in HepG2 cells
T8 sequence (O75469 1-434): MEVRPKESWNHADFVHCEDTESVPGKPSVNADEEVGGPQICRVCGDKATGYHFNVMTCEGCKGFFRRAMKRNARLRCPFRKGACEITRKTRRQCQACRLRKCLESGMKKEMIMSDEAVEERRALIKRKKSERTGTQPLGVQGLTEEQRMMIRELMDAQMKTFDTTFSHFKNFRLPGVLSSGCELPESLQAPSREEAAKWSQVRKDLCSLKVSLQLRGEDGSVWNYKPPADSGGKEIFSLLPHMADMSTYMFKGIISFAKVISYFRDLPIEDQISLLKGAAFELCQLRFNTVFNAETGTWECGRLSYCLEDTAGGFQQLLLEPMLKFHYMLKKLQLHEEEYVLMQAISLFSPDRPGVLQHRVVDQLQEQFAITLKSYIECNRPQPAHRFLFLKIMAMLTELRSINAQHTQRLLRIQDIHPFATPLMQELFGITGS
Method: HepG2 cells were then treated with compounds of the invention for 24 h.

[6] = tested on: differentiated HepaRG cells; test: Viability/cytotoxicity in differentiated HepaRG cells; format: cell-based, human; conditions: 48 h treatment
human CYP1A2 = target: T9, human CYP1A2 (Homo sapiens, UniProt P05177); test: Commercial CYP450-Glo inhibition assay, CYP1A2; format: in vitro ADME
T9 construct: purchased Promega V8772
T9 sequence (P05177 whole entry): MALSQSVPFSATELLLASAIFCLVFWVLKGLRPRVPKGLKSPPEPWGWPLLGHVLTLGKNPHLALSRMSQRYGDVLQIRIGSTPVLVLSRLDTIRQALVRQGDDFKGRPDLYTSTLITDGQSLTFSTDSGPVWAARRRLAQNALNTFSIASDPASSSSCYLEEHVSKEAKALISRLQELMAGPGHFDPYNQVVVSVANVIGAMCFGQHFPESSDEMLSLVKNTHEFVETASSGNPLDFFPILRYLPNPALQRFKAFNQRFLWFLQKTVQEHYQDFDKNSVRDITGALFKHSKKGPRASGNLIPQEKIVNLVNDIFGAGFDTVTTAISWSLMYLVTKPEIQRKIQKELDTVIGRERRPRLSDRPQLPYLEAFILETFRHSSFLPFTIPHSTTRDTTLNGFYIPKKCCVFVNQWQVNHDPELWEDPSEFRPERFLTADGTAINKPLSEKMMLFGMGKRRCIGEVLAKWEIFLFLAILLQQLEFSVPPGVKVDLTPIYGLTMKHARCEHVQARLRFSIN
Method: as §1

[7] = tested on: CYP2B6 mRNA (CAR target gene); test: RT-qPCR of CYP2B6 mRNA in primary human hepatocytes; format: cell-based; conditions: 48 hours, 1 and 5 μM/L (FIG. 4)
Excerpt: Delta-delta method and GAPDH/Gapdh or B2M/B2m housekeeping genes were used for relative quantification. Data are expressed as fold up-/down-regulation compare to vehicle-treated samples/mice.

live X receptor α = target: T10, live X receptor α (Homo sapiens, UniProt Q13133); test: Luciferase reporter assay with GAL4 construct with LBD, live X receptor α; format: cell-based; conditions: 10 μM/L
T10 construct: luciferase reporter assays with a GAL4 constructs with LBD of tested nuclear receptors; expressed in transfected cells
T10 sequence (Q13133 209-447 limits assumed): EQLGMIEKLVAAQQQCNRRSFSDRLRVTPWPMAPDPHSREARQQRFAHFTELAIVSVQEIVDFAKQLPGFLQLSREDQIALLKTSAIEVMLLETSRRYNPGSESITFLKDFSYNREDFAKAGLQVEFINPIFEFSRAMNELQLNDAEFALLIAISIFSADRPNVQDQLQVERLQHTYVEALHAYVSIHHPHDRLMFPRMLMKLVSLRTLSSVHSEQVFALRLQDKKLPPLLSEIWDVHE

[8] = format: in vivo
Method: Livers were sampled 24 hours after the last application into liquid nitrogen. In case of i.p. Glucose Tolerance test (IPGTT), each mouse on chronic high fat diet received i.p. application of 20% glucose solution at the dose of lg glucose per kg b.w. Blood glucose concentration was analyzed with a glucometer from blood sampled from the tail. In case of i.p. Isulin Tolerance test (IPITT), mice received insulin administered via i.p. application in the dose of 0.75 mU/g b.w.

[9] = tested on: primary human hepatocytes; test: Viability/cytotoxicity in primary human hepatocytes; format: cell-based; conditions: 48 h treatment
PPARα = target: T11, PPARα (Homo sapiens, UniProt Q07869); test: Luciferase reporter assay with GAL4 construct with LBD, PPARα; format: cell-based; conditions: 10 μM/L
T11 construct: luciferase reporter assays with a GAL4 constructs with LBD of tested nuclear receptors; expressed in transfected cells
T11 sequence (Q07869 239-466 limits assumed): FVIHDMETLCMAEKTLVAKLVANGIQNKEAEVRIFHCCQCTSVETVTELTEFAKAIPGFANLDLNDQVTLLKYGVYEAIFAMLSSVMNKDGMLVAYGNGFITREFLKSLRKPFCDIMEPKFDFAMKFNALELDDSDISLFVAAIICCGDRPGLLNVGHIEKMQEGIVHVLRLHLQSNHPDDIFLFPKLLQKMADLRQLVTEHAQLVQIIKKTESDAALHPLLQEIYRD

[10] = 10 mg/kg b.w. by gavage for 4 weeks, 60% high-fat diet 8 weeks

For `NC(=O)c1cc(Cn2cc(-c3c(-c4ccc(Cl)cc4)nc4cc(F)ccn34)nn2)ccc1Cl` [Example 93, 2-Chloro-5-((4-(2-(4-chlorophenyl)-7-fluoroimidazo[1,2-a]pyridin-3-yl)-1H-1,2,3-triazol-1-yl)methyl)benzamide], which “CYP3A4 mRNA in the liver” value [1] is on record?
Its value is “up-regulate”.

And the “Cyp2b10 mRNA in the liver” value [1]?
Its value is “up-regulate”.

And the “Cyp2c29 mRNA in the liver” value [1]?
Its value is “up-regulate”.

And the half-life at 2 μM [2]?
Its half-life at 2 μM is over 2.83 h.

What about the fraction unbound at 1 μM [3] of the same compound?
The fraction unbound at 1 μM was 0.01.

What about the IC50 (human CYP2D6) of the same compound?
Its IC50 is over 10 µM.

And the “activation of human androgen receptor” value (human androgen receptor)?
Its value is “do not activate”.

What about the “activation of glucocorticoid receptor” value (glucocorticoid receptor) of the same compound?
The value was “do not activate”.

And the “activation of PPARγ” value (PPARγ)?
The value was “do not activate”.

What about the “interference with hERG activity (FluxOR, HEK293-hERG)” value [4] of the same compound?
Its value is “do not interfere with hERG activity”.

What about the “CAR+A-EGFP fusion protein translocation into nucleus” value [5] of the same compound?
The value was “significantly stimulates”.

And the “activation of live X receptor β” value (live X receptor β)?
The value was “do not activate”.

What about the “activation of estradion α receptor” value (estradion α receptor) of the same compound?
Its value is “do not activate”.

And the “PXR % of RIF activity (10 μM) at 10 μM” value (human PXR; tested at 10 μM, HepG2, 24 h)?
Its value is “No activation”.

And the “selectivity and specificity for human CAR in comparison with CITCO (FIG. 2)” value (human PXR; versus PXR)?
Its value is “highly selective and specific for human CAR”.

And the “viability/cytotoxicity in differentiated HepaRG cells” value [6]?
The value was “no effect on viability/cytotoxicity”.

What about the IC50 (human CYP1A2) of the same compound?
Its IC50 is over 10 µM.

And the “CYP2B6 mRNA in primary human hepatocytes” value [7]?
The value was “up-regulates”.

What about the “activation of live X receptor α” value (live X receptor α) of the same compound?
Its value is “do not activate”.

And the “insulin sensitivity in IPGTT and IPITT” value [8, 10]?
The value was “stimulatory effect on insulin sensitivity; also recorded: alleviates insuline resistance and stimulates the effect of insuline”.

And the “liver hypertrophy (liver-to-body weight ratio)” value [8, 10]?
Its value is “does not stimulate significantly liver hypertrophy”.

And the “Mki67 mRNA in mouse liver” value ([8]; 10 mg/kg, 4 weeks)?
Its value is “did not significantly up-regulate”.

What about the “RNA level of Fasn in mouse liver” value ([8]; 10 mg/kg, 4 weeks) of the same compound?
Its value is “significantly decrease”.

And the “RNA level of Scd1 in mouse liver” value ([8]; 10 mg/kg, 4 weeks)?
The value was “significantly decrease”.

What about the “hepatotoxicity (ALT, AST, ALP, LDH biochemical markers)” value ([8]; 10 mg/kg, 4 weeks) of the same compound?
The value was “does not display hepatotoxicity”.

And the “plasma LDL” value ([8]; 10 mg/kg, 4 weeks)?
Its value is “has an effect; also recorded: decreases”.

What about the plasma cholesterol ([8]; 10 mg/kg, 4 weeks) of the same compound?
Its plasma cholesterol is “has an effect; also recorded: decreases”.

What about the body weight ([8]; 10 mg/kg, after 4 weeks of application) of the same compound?
The body weight was “decrease body weight; also recorded: reduces the body weight”.

What about the “viability/cytotoxicity in primary human hepatocytes” value [9] of the same compound?
Its value is “no effect on viability/cytotoxicity”.

And the “activation of PPARα” value (PPARα)?
The value was “do not activate”.
